According to US4966915A, “L-dopa derivatives or their acid addition salts, process for producing same and their use” (priority 1987, dated 1990):

Experiments:
[1] = Blood levels of L-dopa after intravenous administration of drugs (rats); assay type: in vivo, SD-strain male rats
Description: FIG. 7 illustrates change with time of a blood level of L-dopa in intravenously administering Compound A (o) and L-dopa (.cndot.) to rats.
Measuring blood levels of L-dopa after intravenous administration of drugs (rats)
Seven to eight week-old SD-strain male rats (n=3) were previously fasted for 18 hours. Twenty milligrams of L-dopa as a control drug or the equimolar amount of Compound A was dissolved in a concentration of 10 mg/ml in a physiolosical saline containing 50% propylene glycol, and the resulting solution was intravenously administered to the rats at a dose of 10 mg eq./kg, calculated as L-dopa. Immediately after administration, or 5, 15, 30, 45, 60, 90, 120, 150, 180 or 240 minutes after administration, 120 μl of blood was collected through a carotid cannula intubated in advance three days before the test using a heparin-treated glass capillary. The blood was treated as in Test Example 1 and then measured for blood levels of L-dopa.

[2] = Concentrations of L-dopa in the lumen and tissue of the small intestine by an in situ ligating loop method (rats); assay type: in vivo, male rats; conditions: jejunal loop, with 0.4 mg carbidopa
Excerpt: FIG. 8 illustrates change with time of amounts of Compound A (Δ) and L-dopa (o) after injection of Compound A, and amount of L-dopa (.cndot.) after injection of L-dopa in the lumen of the small intestine of rats according to an in situ ligating loop method.
FIG. 9 illustrates change with time of amounts of Compound A (Δ) and L-dopa (o) after injection of Compound A, and amount of L-dopa (.cndot.) after injection of L-dopa in the tissue of the small intestine of rats according to an in situ ligating loop method.
Measuring concentrations of L-dopa in the lumen and tissue of the small intestine by an in situ ligating loop method (rats)
Eight week-old male rats (n=3) were fasted overnight before the test, and then under ether anesthesia, were incised at the abdomen. An acute loop of 8 cm length was ligated in the jejunum. Compound A (1.47 mg) or 1.00 mg of L-dopa as a control drug was suspended in 0.5 ml of 0.5% sodium carboxymethylcellulose together with 0.4 mg of carbidopa, and the suspension was injected into the loop. The loop was returned in the abdominal cabity and the cut portion was then sewn. After a fixed time, the loop was taken out again and the content in the loop was well washed with a ice-cooled physiological saline. […] In the resulting solutions, the concentration of L-dopa was determined as in Test Example 1 and the concentration of Compound A as follows, respectively. […]

[3] = Acute toxicity, oral administration (mice); assay type: in vivo, ddY-strain male mice; conditions: mortality up to 1 week; for LD50 at 168 h: mouse, in vivo
Excerpt: Each of the test drugs was suspended in a 0.5% sodium carboxymethylcellulose solution containing 0.1% Tween 80 and orally administered to each of ddY-strain male mice (body weight 24 to 31 g, n=5), and a mortality up to 1 week after administration was observed. Toxicity of test compounds (Compounds A and B) was extremely low. The LD50 value was 6 g/kg or more in both cases.

[4] = Acute toxicity, intraperitoneal administration (mice); assay type: in vivo, ddY-strain male mice; conditions: for mortality: up to 1 week, n=5
Excerpt: (2) Intraperitoneal administration
Each of the test drugs was suspended in a sterilized physiological saline and intraperitoneally administered to ddY-strain male mice (body weight 24 to 29 g, n=5), and a mortality up to 1 week after administration was observed.

[5] = cited from earlier work
[6] = concluded from conversion to L-dopa

| SMILES | hydrolysis to L-dopa in the systemic circulation ([1]; 10 mg eq./kg as L-dopa) | conversion ratio to L-dopa ([1]; 10 mg eq./kg as L-dopa, estimated) | bioavailability [1, 6] | toxicity [1, 6] | amount of L-dopa in the lumen (washing liquid) and tissue (homogenate) of the small intestine ([2]; 1.47 mg Compound A vs 1.00 mg L-dopa) | concentration of L-dopa in the lumen and tissue of the small intestine [2] | toxicity [3] | LD50 at 168 h [3] | mortality ([4]; 1800 mg/kg) | toxicity ([4]; mortality up to 1 week) | mortality ([4]; 1250 mg/kg) | blood level of L-dopa ([5]; human, in vivo) | appearance of dyskinesias after administration of L-dopa ([5]; patients, chronic L-dopa therapy) | elimination of L-dopa from blood ([5]; patients) |
| --- | --- | --- | --- | --- | --- | --- | --- | --- | --- | --- | --- | --- | --- | --- |
| CC(C)(C)C(=O)Oc1ccc(C[C@H](N)C(=O)O)cc1O [Compound A, 4-O-pivaloyl-L-dopa] | rapidly and completely hydrolyzed to L-dopa | about 100% | high bioavailability | low toxicity | retained for a longer time with less fluctuation than that after administration of L-dopa | kept low | extremely low | ≥ 6000 mg/kg | no case of death was observed | very low |  |  |  |  |
| CC1(C(=O)Oc2ccc(C[C@H](N)C(=O)O)cc2O)CC1 [Compound B, 4-O-(1-methylcyclopropanecarbonyl)-L-dopa] |  |  |  |  |  |  | extremely low | ≥ 6000 mg/kg |  |  |  |  |  |  |
| N[C@@H](Cc1ccc(O)c(O)c1)C(=O)O [L-dopa] |  |  |  |  |  |  |  | 3200 mg/kg | all the test mice were dead |  | two of five mice were dead | rapidly increases and falls | 1 to 2 h | rapid elimination |
